Reference: paper PMC10108347, “Heterobifunctional Ligase Recruiters Enable pan-Degradation of Inhibitor of Apoptosis Proteins” (Journal of Medicinal Chemistry, 2023)
Entries after “also recorded” stand apart in the source; their conditions may differ. Where two headings read alike, the source gives them in different places.

How the values were obtained:
[1] = Log D7.4 measurement by chromatographic (fast-gradient HPLC) method; details: pH 7.4
Description: The system was calibrated by plotting the retention times of six different drugs (atenolol, metoprolol, labetalol, diltiazem, triphenylene, and permethrin) versus their literature-known log D7.4 in a calibration line (R^2 = 0.99). Subsequently, the mean retention times of the analytes were taken to calculate their log D7.4 values with the aid of the calibration line. At least two independent measurements of each analyte were performed.

[2] = target: T1, plasma protein (HSA column) (Homo sapiens, UniProt P02768); assay: Plasma protein binding estimated by HPLC on a […] HSA column; format: in vitro ADME; details: CHIRALPAK HSA column (50 × 3 mm, 5 μm), estimated by an HPLC-based method, read-out: PPB (plasma protein binding) (converted)
T1 construct: purchased
Description: Plasma protein binding (% PPB) was estimated by correlating the logarithmic retention times of the analytes on a […] HSA 50 × 3 mm, 5 μm column with the literature-known % PPB values (converted into log K values) of the following drugs: warfarin, ketoprofen, budesonide, nizatidine, indomethacin, acetylsalicylic acid, carbamazepine, piroxicam, nicardipine, and cimetidine (for details, see Valko et al.).[67] The samples were dissolved in MeCN/DMSO 9:1 to achieve a final concentration of 0.5 mg/mL. Mobile phase A was 50 mM ammonium acetate adjusted to pH 7.4 with ammonia solution, while mobile phase B was iPrOH. The flow rate was set to 1.0 mL/min, the UV detector was set to 254 nm, and the column temperature was kept at 30 °C. After injecting 2 μL of the sample, a linear gradient from 100% A to 30% iPrOH in 5.4 min was applied. From 5.4 to 18 min, 30% iPrOH was kept, followed by switching back to 100% A in 1.0 min and a re-equilibration time of 6 min. With the aid of the calibration line (R^2 = 0.96), the log K values of new substances were calculated and converted to their % PPB values.

XIAP = XIAP (Homo sapiens, UniProt P98170); assay: Immunoblotting (western blot) quantification of XIAP levels in MM.1S cells; details: 16 h; for remaining activity at 0.1 µM: MM1.S
cIAP1 = cIAP1 (Homo sapiens, UniProt Q13490); assay: Immunoblotting (western blot) quantification of cIAP1 levels in MM.1S cells; details: MM1.S, 16 h
Description: (§1) To evaluate the capability of our panel of hetero-PROTACs for E3 ligase degradation, VHL19, VHL30, CRBN, cIAP1, cIAP2, and XIAP levels were quantified by western blot analyses. […] SDS-PAGE was performed, and proteins were then transferred onto PVDF membranes. Blotted membranes were blocked with 5% milk in Tris-buffered saline/Tween20 (TBST). Primary antibodies were diluted in 5% BSA in TBST, and incubations were performed overnight at 4 °C. Secondary HRP-conjugated antibodies diluted in 5% milk were incubated for 1 h at room temperature. Detection of proteins on PVDF was carried out using the WesternBright ECL HRP substrate or the WesternBright Sirius HRP substrate (Advansta, San Jose, USA) and imaged with LAS 4000× (Fujifilm). Membranes were subjected to 10 min incubation with Restore Western Blot Stripping Buffer (Thermo Fisher Scientific, Waltham, USA), followed by TBST washes. After brief re-activation with methanol, the membranes were blocked, and further probing of proteins was carried out.
(§2) Quantification of blots was performed using ImageJ software (National Institutes of Health).

cIAP2 = cIAP2 (Homo sapiens, UniProt Q13489); assay: Immunoblotting (western blot) quantification of cIAP2 levels in MM.1S cells; details: MM1.S, 16 h
Description: as §1, §2

VHL30 = VHL30 (Homo sapiens, UniProt P40337); assay: Immunoblotting (western blot) quantification of VHL30 levels in MM.1S cells; details: MM1.S, 16 h
Description: as §1, §2

[3] = system: IAPs (cIAP1, cIAP2, XIAP); assay: Immunoblotting of IAPs in MM.1S cells, overall degradation profile, time course and washout; format: cell-based; details: 16 h, western blot, concentration (10 nM to 1 μM)
Description: Next, we examined the persistence of IAP degradation in MM.1S cells after a single exposure to 1 μM of 9 and subsequent removal of the compound. […] The reliance on CRL2^VHL was assessed with a neddylation inhibitor MLN4924, which blocks the activity of CRLs (Figure S13A).

[4] = read-out: %remaining protein XIAP
[5] = read-out: %remaining protein cIAP1
[6] = read-out: %remaining protein cIAP2
[7] = read-out: %remaining protein VHL30

Sequence of cIAP2 (Q13489 whole entry): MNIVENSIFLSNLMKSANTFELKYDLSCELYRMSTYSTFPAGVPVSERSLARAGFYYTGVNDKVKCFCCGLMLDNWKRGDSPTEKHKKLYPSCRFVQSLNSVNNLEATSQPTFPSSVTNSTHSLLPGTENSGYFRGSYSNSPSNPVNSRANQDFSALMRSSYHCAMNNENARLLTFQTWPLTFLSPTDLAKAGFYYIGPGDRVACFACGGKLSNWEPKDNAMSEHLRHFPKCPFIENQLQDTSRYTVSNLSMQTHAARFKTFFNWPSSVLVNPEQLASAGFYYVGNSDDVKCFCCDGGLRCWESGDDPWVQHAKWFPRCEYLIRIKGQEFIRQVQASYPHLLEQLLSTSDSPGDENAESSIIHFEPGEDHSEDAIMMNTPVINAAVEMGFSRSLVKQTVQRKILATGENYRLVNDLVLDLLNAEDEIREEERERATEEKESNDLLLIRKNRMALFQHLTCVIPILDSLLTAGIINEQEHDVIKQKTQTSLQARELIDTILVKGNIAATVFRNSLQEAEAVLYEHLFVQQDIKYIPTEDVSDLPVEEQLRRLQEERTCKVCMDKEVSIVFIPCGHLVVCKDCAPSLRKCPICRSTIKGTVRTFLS
Sequence of cIAP1 (Q13490 whole entry): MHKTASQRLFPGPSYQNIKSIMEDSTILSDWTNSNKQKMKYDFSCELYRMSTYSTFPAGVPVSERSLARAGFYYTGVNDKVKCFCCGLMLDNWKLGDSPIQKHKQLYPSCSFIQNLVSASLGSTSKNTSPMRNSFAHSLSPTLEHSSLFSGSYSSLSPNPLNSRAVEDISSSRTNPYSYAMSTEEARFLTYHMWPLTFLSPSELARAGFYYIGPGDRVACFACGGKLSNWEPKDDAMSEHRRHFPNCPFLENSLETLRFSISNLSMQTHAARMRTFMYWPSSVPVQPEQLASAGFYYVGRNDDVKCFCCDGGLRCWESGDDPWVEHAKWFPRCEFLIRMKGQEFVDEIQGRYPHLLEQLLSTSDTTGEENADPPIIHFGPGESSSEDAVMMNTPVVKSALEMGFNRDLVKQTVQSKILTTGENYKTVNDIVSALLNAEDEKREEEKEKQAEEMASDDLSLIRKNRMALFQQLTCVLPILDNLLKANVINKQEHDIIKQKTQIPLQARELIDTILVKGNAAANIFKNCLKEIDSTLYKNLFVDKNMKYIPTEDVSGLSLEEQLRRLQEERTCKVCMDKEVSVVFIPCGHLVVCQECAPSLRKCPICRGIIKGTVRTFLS
T1 sequence (P02768 25-609): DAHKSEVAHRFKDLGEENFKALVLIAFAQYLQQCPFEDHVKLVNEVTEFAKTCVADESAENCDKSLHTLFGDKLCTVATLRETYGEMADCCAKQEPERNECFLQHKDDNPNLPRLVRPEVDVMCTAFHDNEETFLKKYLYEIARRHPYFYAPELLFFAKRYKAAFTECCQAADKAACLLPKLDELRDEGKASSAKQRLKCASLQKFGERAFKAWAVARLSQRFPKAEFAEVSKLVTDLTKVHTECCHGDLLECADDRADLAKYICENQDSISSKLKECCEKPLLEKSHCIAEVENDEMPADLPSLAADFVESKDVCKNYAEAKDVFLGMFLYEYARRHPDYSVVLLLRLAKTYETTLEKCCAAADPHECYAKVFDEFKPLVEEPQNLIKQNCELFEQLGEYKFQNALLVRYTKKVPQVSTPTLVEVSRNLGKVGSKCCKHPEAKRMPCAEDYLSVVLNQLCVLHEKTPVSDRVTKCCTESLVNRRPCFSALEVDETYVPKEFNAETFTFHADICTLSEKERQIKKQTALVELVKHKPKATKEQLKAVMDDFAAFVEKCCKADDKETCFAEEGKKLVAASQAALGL
Sequence of VHL30 (P40337 whole entry): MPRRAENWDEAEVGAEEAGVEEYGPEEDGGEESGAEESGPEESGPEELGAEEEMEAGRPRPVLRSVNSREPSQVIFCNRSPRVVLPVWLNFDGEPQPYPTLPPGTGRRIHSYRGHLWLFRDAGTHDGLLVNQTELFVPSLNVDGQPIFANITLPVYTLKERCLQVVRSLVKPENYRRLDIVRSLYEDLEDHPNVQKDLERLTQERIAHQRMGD
Sequence of XIAP (P98170 whole entry): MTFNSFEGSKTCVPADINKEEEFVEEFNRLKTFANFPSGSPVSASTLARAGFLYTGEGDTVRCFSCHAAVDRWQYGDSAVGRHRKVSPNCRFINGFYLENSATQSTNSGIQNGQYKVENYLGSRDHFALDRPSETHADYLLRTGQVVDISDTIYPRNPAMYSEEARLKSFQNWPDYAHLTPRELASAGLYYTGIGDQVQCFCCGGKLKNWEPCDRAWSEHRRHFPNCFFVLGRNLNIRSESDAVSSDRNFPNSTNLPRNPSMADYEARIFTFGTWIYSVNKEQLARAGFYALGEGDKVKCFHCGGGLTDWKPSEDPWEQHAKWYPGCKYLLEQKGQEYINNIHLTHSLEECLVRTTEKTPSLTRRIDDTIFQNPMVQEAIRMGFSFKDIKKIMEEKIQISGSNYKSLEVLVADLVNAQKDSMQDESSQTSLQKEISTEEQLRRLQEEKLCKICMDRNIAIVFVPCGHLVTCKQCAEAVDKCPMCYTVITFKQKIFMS

Row | remaining activity at 0.1 µM (XIAP; read-out: %remaining protein XIAP, MM.1S cells, 16 h treatment at 0.1 μM, normalized to loading control and DMSO) [%] | remaining activity at 0.1 µM (cIAP1; read-out: %remaining protein cIAP1, MM.1S cells, 16 h treatment at 0.1 μM, normalized to loading control and DMSO) [%] | remaining activity at 0.1 µM (cIAP2; read-out: %remaining protein cIAP2, MM.1S cells, 16 h treatment at 0.1 μM, normalized to loading control and DMSO) [%] | remaining activity at 0.1 µM (VHL30; read-out: %remaining protein VHL30, MM.1S cells, 16 h treatment at 0.1 μM, normalized to loading control and DMSO) [%] | XIAP degradation (in words) (XIAP; MM.1S cells, western blot, 0.1 or 1 μM) | Structure (SMILES) | chromatographic logD [1] | fraction unbound at 0.5 mg/mL [2] | remaining activity at 0.1 µM (XIAP; [4]) [%] | remaining activity at 0.1 µM (cIAP1; [5]) [%] | remaining activity at 0.1 µM (cIAP2; [6]) [%] | remaining activity at 0.1 µM (VHL30; [7]) [%] | IAP degradation profile (in words) [3]
1 |  |  |  |  |  | CN[C@@H](C)C(=O)N[C@H](C(=O)N1C[C@@H](Oc2cccc(OCCOCCOCCOCCOc3cc(-c4scnc4C)ccc3CNC(=O)[C@@H]3C[C@@H](O)CN3C(=O)[C@H](C(C)C)N3Cc4ccccc4C3=O)c2)C[C@H]1C(=O)N[C@@H]1CCCc2ccccc21)C1CCCCC1 [PROTAC 16, (2S,4S)-1-((S)-2-Cyclohexyl-2-((S)-2-(methylamino)propanamido)acetyl)-4-(3-(2-(2-(2-(2-(2-(((2S,4R)-4-hydroxy-1-((S)-3-methyl-2-(1-oxoisoindolin-2-yl)butanoyl)pyrrolidine-2-carboxamido)methyl)-5-(4-methylthiazol-5-yl)phenoxy)ethoxy)ethoxy)ethoxy)ethoxy)phenoxy)-N-((R)-1,2,3,4-tetrahydronaphthalen-1-yl)pyrrolidine-2-carboxamide] | 3.3 | 0.05 | 2 | 3 | 31 | 41 | 
2 |  |  |  |  |  | CN[C@@H](C)C(=O)N[C@H](C(=O)N1C[C@@H](Oc2cccc(OCCCCCCOCCCCCCOCCOc3cc(-c4scnc4C)ccc3CNC(=O)[C@@H]3C[C@@H](O)CN3C(=O)[C@H](C(C)C)N3Cc4ccccc4C3=O)c2)C[C@H]1C(=O)N[C@@H]1CCCc2ccccc21)C1CCCCC1 [PROTAC 17, (2S,4S)-1-((S)-2-Cyclohexyl-2-((S)-2-(methylamino)propanamido)acetyl)-4-(3-((6-((6-(2-(2-(((2S,4R)-4-hydroxy-1-((S)-3-methyl-2-(1-oxoisoindolin-2-yl)butanoyl)pyrrolidine-2-carboxamido)methyl)-5-(4-methylthiazol-5-yl)phenoxy)ethoxy)hexyl)oxy)hexyl)oxy)phenoxy)-N-((R)-1,2,3,4-tetrahydronaphthalen-1-yl)pyrrolidine-2-carboxamide] | 5.2 | 0.03 | 1 | 3 | 31 | 81 | 
3 |  |  |  |  |  | CN[C@@H](C)C(=O)N[C@H](C(=O)N1C[C@@H](Oc2cccc(OCCCCOCCCCOc3cc(-c4scnc4C)ccc3CNC(=O)[C@@H]3C[C@@H](O)CN3C(=O)[C@H](C(C)C)N3Cc4ccccc4C3=O)c2)C[C@H]1C(=O)N[C@@H]1CCCc2ccccc21)C1CCCCC1 [PROTAC 14, (2S,4S)-1-((S)-2-Cyclohexyl-2-((S)-2-(methylamino)propanamido)acetyl)-4-(3-(4-(4-(2-(((2S,4R)-4-hydroxy-1-((S)-3-methyl-2-(1-oxoisoindolin-2-yl)butanoyl)pyrrolidine-2-carboxamido)methyl)-5-(4-methylthiazol-5-yl)phenoxy)butoxy)butoxy)phenoxy)-N-((R)-1,2,3,4-tetrahydronaphthalen-1-yl)pyrrolidine-2-carboxamide] | 4.2 | 0.04 | 3 | 2 | 15 | 39 | 
4 | 87 | 73 | 88 | > 99 |  | Cc1ncsc1-c1ccc([C@H](C)NC(=O)[C@@H]2C[C@@H](O)CN2C(=O)[C@@H](NC(=O)CCCCOc2cccc(O[C@H]3C[C@@H](C(=O)N[C@@H]4CCCc5ccccc54)N(C(=O)[C@@H](NC(=O)[C@H](C)N(C)C(=O)OC(C)(C)C)C4CCCCC4)C3)c2)C(C)(C)C)cc1 [PROTAC 10d, tert-Butyl ((S)-1-(((S)-1-Cyclohexyl-2-((2S,4S)-4-(3-((5-(((S)-1-((2S,4R)-4-hydroxy-2-(((S)-1-(4-(4-methylthiazol-5-yl)phenyl)ethyl)carbamoyl)pyrrolidin-1-yl)-3,3-dimethyl-1-oxobutan-2-yl)amino)-5-oxopentyl)oxy)phenoxy)-2-(((R)-1,2,3,4-tetrahydronaphthalen-1-yl)carbamoyl)pyrrolidin-1-yl)-2-oxoethyl)amino)-1-oxopropan-2-yl)(methyl)carbamate] |  |  |  |  |  |  | inactivated PROTACs
5 |  |  |  |  |  | CN[C@@H](C)C(=O)N[C@H](C(=O)N1C[C@@H](Oc2cccc(OCCCCCOc3cc(-c4scnc4C)ccc3CNC(=O)[C@@H]3C[C@@H](O)CN3C(=O)[C@H](C(C)C)N3Cc4ccccc4C3=O)c2)C[C@H]1C(=O)N[C@@H]1CCCc2ccccc21)C1CCCCC1 [PROTAC 12, (2S,4S)-1-((S)-2-Cyclohexyl-2-((S)-2-(methylamino)propanamido)acetyl)-4-(3-((5-(2-(((2S,4R)-4-hydroxy-1-((S)-3-methyl-2-(1-oxoisoindolin-2-yl)butanoyl)pyrrolidine-2-carboxamido)methyl)-5-(4-methylthiazol-5-yl)phenoxy)pentyl)oxy)phenoxy)-N-((R)-1,2,3,4-tetrahydronaphthalen-1-yl)pyrrolidine-2-carboxamide] | 4 | 0.04 | 5 | 4 | 29 | 55 | 
6 |  |  |  |  | failed to degrade XIAP | CN[C@@H](C)C(=O)N[C@H](C(=O)N1CCC[C@H]1c1nc(C(=O)c2ccc(F)cc2)cs1)C1CCCCC1 [LCL161, reference compound] | 3.3 | 0.12 |  |  |  |  | 
7 |  |  |  |  |  | CN[C@@H](C)C(=O)N[C@H](C(=O)N1C[C@@H](Oc2cccc(OCCCCCCCCOc3cc(-c4scnc4C)ccc3CNC(=O)[C@@H]3C[C@@H](O)CN3C(=O)[C@H](C(C)C)N3Cc4ccccc4C3=O)c2)C[C@H]1C(=O)N[C@@H]1CCCc2ccccc21)C1CCCCC1 [PROTAC 13, (2S,4S)-1-((S)-2-Cyclohexyl-2-((S)-2-(methylamino)propanamido)acetyl)-4-(3-((8-(2-(((2S,4R)-4-hydroxy-1-((S)-3-methyl-2-(1-oxoisoindolin-2-yl)butanoyl)pyrrolidine-2-carboxamido)methyl)-5-(4-methylthiazol-5-yl)phenoxy)octyl)oxy)phenoxy)-N-((R)-1,2,3,4-tetrahydronaphthalen-1-yl)pyrrolidine-2-carboxamide] | 4.8 | 0.03 | 5 | 3 | 15 | 53 | 
8 |  |  |  |  |  | CN[C@@H](C)C(=O)N[C@H](C(=O)N1C[C@@H](Oc2cccc(OCCCCCCOCCCCCCOCCCCCCOc3cc(-c4scnc4C)ccc3CNC(=O)[C@@H]3C[C@@H](O)CN3C(=O)[C@H](C(C)C)N3Cc4ccccc4C3=O)c2)C[C@H]1C(=O)N[C@@H]1CCCc2ccccc21)C1CCCCC1 [PROTAC 19, (2S,4S)-1-((S)-2-Cyclohexyl-2-((S)-2-(methylamino)propanamido)acetyl)-4-(3-((6-((6-((6-(2-(((2S,4R)-4-hydroxy-1-((S)-3-methyl-2-(1-oxoisoindolin-2-yl)butanoyl)pyrrolidine-2-carboxamido)methyl)-5-(4-methylthiazol-5-yl)phenoxy)hexyl)oxy)hexyl)oxy)hexyl)oxy)phenoxy)-N-((R)-1,2,3,4-tetrahydronaphthalen-1-yl)pyrrolidine-2-carboxamide] | 6.3 |  | 34 | 27 | 84 | 95 | dual cIAP1/XIAP degradation at 0.1 μM concentration; also recorded: pan-IAP degradation at 1 μM; also recorded: no degradation at 10 nM
